Assay results from ChEMBL document CHEMBL1201862, “PubChem BioAssay data set” (2004).
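Protocol summary: plate cells (96-well), add compound at 5 concentrations, incubate 48 h, interpolate endpoints linearly. GI50 is the concentration that inhibits growth by half.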 The source made the active and inactive calls. Cut-off read from the data, not from the text of the source: active = GI50 up to about 1.1 µM and inactive = higher.

Key:
Experiment in all cases: NCI anticancer screen, dose series, 48 h
[1] = test system: 786-0
[2] = test system: A498
[3] = test system: A549
[4] = test system: ACHN
[5] = test system: BT-549
[6] = test system: CAKI-1
[7] = test system: CCRF-CEM
[8] = test system: COLO 205
[9] = test system: DU-145
[10] = test system: EKVX
[11] = test system: HCC 2998
[12] = test system: HCT-116
[13] = test system: HCT-15
[14] = test system: HOP-62
[15] = test system: HOP-92
[16] = test system: HT-29
[17] = test system: Hs-578T
[18] = test system: IGROV-1
[19] = test system: K562
[20] = test system: KM12
[21] = test system: M14
[22] = test system: MCF7
[23] = test system: MDA-MB-231
[24] = test system: MDA-MB-435
[25] = test system: MDA-N
[26] = test system: MOLT-4
[27] = test system: Malme-3M
[28] = test system: NCI-H226
[29] = test system: NCI-H23
[30] = test system: NCI-H460
[31] = test system: NCI-H522
[32] = test system: NCI/ADR-RES
[33] = test system: OVCAR-3
[34] = test system: OVCAR-4
[35] = test system: OVCAR-5
[36] = test system: OVCAR-8
[37] = test system: PC-3
[38] = test system: RXF 393
[39] = test system: SF-268
[40] = test system: SF-295
[41] = test system: SF-539
[42] = test system: SK-MEL-28
[43] = test system: SK-MEL-5
[44] = test system: SK-OV-3
[45] = test system: SN12C
[46] = test system: SNB-19
[47] = test system: SNB-75
[48] = test system: SR
[49] = test system: SW-620
[50] = test system: T47D
[51] = test system: TK-10
[52] = test system: U-251
[53] = test system: UACC-257
[54] = test system: UACC-62
[55] = test system: UO-31
[56] = test system: HL-60
[57] = test system: LOX IMVI
[58] = test system: RPMI-8226
[59] = test system: SK-MEL-2

COc1cc(C(=O)/C=C/c2ccc(OCC#N)cc2)cc(OC)c1OC
GI50 [1]: 22.2 µM (inactive)
GI50 [2]: 21.4 µM (inactive)
GI50 [3]: 21.4 µM (inactive)
GI50 [4]: 23.5 µM (inactive)
GI50 [5]: 17.7 µM (inactive)
GI50 [6]: 26.1 µM (inactive)
GI50 [7]: 19.4 µM (inactive)
GI50 [8]: 20 µM (inactive)
GI50 [9]: 28.1 µM (inactive)
GI50 [10]: 50.8 µM (inactive)
GI50 [11]: 16.5 µM (inactive)
GI50 [12]: 13.9 µM (inactive)
GI50 [13]: 19.5 µM
GI50 [14]: 22.1 µM (inactive)
GI50 [15]: 17 µM (inactive)
GI50 [16]: 31.7 µM (inactive)
GI50 [17]: 25.1 µM (inactive)
GI50 [18]: 38.4 µM (inactive)
GI50 [19]: 24.5 µM (inactive)
GI50 [20]: 16 µM (inactive)
GI50 [21]: > 10 µM (inactive)
GI50 [22]: 9.02 µM (inactive)
GI50 [23]: > 10 µM (inactive)
GI50 [24]: 20.5 µM (inactive)
GI50 [25]: 38 µM (inactive)
GI50 [26]: 27 µM (inactive)
GI50 [27]: 17.4 µM (inactive)
GI50 [28]: 23.2 µM (inactive)
GI50 [29]: 19.5 µM (inactive)
GI50 [30]: 28.8 µM (inactive)
GI50 [31]: 17.3 µM (inactive)
GI50 [32]: 18 µM (inactive)
GI50 [33]: 22.2 µM (inactive)
GI50 [34]: 37.4 µM (inactive)
GI50 [35]: 47.5 µM (inactive)
GI50 [36]: 29.5 µM (inactive)
GI50 [37]: 18.7 µM (inactive)
GI50 [38]: 18.1 µM (inactive)
GI50 [39]: 33.3 µM (inactive)
GI50 [40]: 46.2 µM (inactive)
GI50 [41]: 17.3 µM (inactive)
GI50 [42]: 17.3 µM (inactive)
GI50 [43]: 13.2 µM (inactive)
GI50 [44]: 40.6 µM (inactive)
GI50 [45]: 18.9 µM (inactive)
GI50 [46]: 20.3 µM (inactive)
GI50 [47]: > 10 µM (inactive)
GI50 [48]: 23.6 µM (inactive)
GI50 [49]: 18.9 µM (inactive)
GI50 [50]: 17.3 µM (inactive)
GI50 [51]: 25.1 µM (inactive)
GI50 [52]: 18 µM (inactive)
GI50 [53]: 34 µM (inactive)
GI50 [54]: 21.2 µM (inactive)
GI50 [55]: 17.6 µM (inactive)

Cc1nc2c(o1)C(=O)c1ccccc1/C2=N/C1CCCCC1N (stereo unspecified)
GI50 [1]: 1.77 µM (inactive)
GI50 [2]: 1.73 µM (inactive)
GI50 [3]: 1.46 µM (inactive)
GI50 [4]: 0.649 µM (active)
GI50 [5]: 0.41 µM (active)
GI50 [6]: 1.71 µM (inactive)
GI50 [7]: 0.247 µM (active)
GI50 [8]: 1.66 µM (inactive)
GI50 [9]: 1.48 µM (inactive)
GI50 [10]: 1.11 µM (active)
GI50 [11]: 1.65 µM (inactive)
GI50 [12]: 0.259 µM (active)
GI50 [13]: 0.547 µM
GI50 [56]: 0.2 µM (active)
GI50 [14]: 0.982 µM (active)
GI50 [15]: 0.483 µM (active)
GI50 [16]: 2.28 µM (inactive)
GI50 [17]: 0.644 µM (active)
GI50 [18]: 1.26 µM (inactive)
GI50 [19]: 0.235 µM (active)
GI50 [20]: 1.67 µM (inactive)
GI50 [57]: 0.16 µM (active)
GI50 [21]: 0.425 µM (active)
GI50 [22]: 0.265 µM (active)
GI50 [23]: 0.373 µM (active)
GI50 [24]: 0.162 µM (active)
GI50 [25]: 0.185 µM (active)
GI50 [26]: 0.273 µM (active)
GI50 [27]: 0.133 µM (active)
GI50 [28]: 1.97 µM (inactive)
GI50 [29]: 0.0975 µM (active)
GI50 [30]: 1.61 µM (inactive)
GI50 [31]: 1.06 µM (active)
GI50 [32]: 0.288 µM (active)
GI50 [33]: 0.249 µM (active)
GI50 [34]: 0.308 µM (active)
GI50 [35]: 1.75 µM (inactive)
GI50 [36]: 0.274 µM (active)
GI50 [37]: 0.321 µM (active)
GI50 [58]: 0.565 µM (active)
GI50 [39]: 1.09 µM (active)
GI50 [41]: 0.32 µM (active)
GI50 [42]: 0.166 µM (active)
GI50 [59]: 0.867 µM (active)
GI50 [43]: 0.11 µM (active)
GI50 [45]: 0.386 µM (active)
GI50 [46]: 0.787 µM (active)
GI50 [47]: 0.206 µM (active)
GI50 [48]: 0.22 µM (active)
GI50 [49]: 0.418 µM (active)
GI50 [50]: 0.345 µM (active)
GI50 [51]: 1.98 µM (inactive)
GI50 [52]: 0.312 µM (active)
GI50 [53]: 0.144 µM (active)
GI50 [54]: 0.169 µM (active)
GI50 [55]: 1.64 µM (inactive)
